Read-outs that look alike come from different tables or passages of the source.
Columns and labels:
[1] = logP determination by retention times (calibration with alkan-2-ones)
Leptosphaeria nodorum = Leptosphaeria nodorum test (wheat)/protective; format: in vivo; settings: Parastagonospora nodorum, 240 h, protective spray, active compound concentration 1000 ppm, evaluation 10 days after inoculation, read-out: efficacy
Description: Leptosphaeria Nodorum Test (Wheat)/Protective [table] […] After the spray coating has dried on, the plants are sprayed with a spore suspension of Leptosphaeria nodorum. The plants remain in an incubation cabin at 20° C. and 100% relative atmospheric humidity for 48 hours. The plants are placed in a greenhouse at a temperature of about 20° C. and a relative atmospheric humidity of 80%.

Fusarium graminearum = experiment: whole plant or invertebrate; format: in vivo; settings: in Hordeum vulgare, 96 h, read-out: efficacy
Phytophthora infestans = experiment: whole plant or invertebrate; format: in vivo; settings: in Solanum lycopersicum, 168 h, read-out: efficacy
[2] = logP, * HPLC reversed-phase C18, 40° C., mobile phase 0.1% aqueous formic acid and acetonitrile, linear gradient 10% to 95% acetonitrile

Structure (SMILES) | chromatographic logP [1] | pest or weed control at 1000 ppm (Leptosphaeria nodorum) | pest or weed control at 1000 ppm (Fusarium graminearum) | pest or weed control at 500 ppm (Phytophthora infestans) | chromatographic logP [1, 2]
CC(=O)c1cccc(Nc2nccc(-c3sc(C4CC4)nc3C)n2)c1 [Example 7, 1-(3-{[4-(2-cyclopropyl-4-methyl-1,3-thiazol-5-yl)pyrimidin-2-yl]amino}phenyl)ethanone] | 2.88 | ≥ 70% | – | – | –
CCc1nc(C)c(-c2ccnc(Nc3cccc(C(C)=O)c3)n2)s1 [Example 9, 1-(3-{[4-(2-ethyl-4-methyl-1,3-thiazol-5-yl)pyrimidin-2-yl]amino}phenyl)ethanone] | 2.7 | – | ≥ 70% | – | –
Cc1nc(C)c(-c2ccnc(Nc3ccc(N(C)C)c(Cl)c3)n2)s1 [Example 62, 2-chloro-N4-[4-(2,4-dimethyl-1,3-thiazol-5-yl)pyrimidin-2-yl]-N1,N1-dimethylbenzene-1,4-diamine] | 2.06 | ≥ 70% | – | – | –
CCc1nc(C)c(-c2ccnc(Nc3ccc(NC(=O)OCCOC)cc3)n2)s1 [Example 73, 2-methoxyethyl-(4-{[4-(2-ethyl-4-methyl-1,3-thiazol-5-yl)pyrimidin-2-yl]amino}phenyl)carbamate] | 2.36 | ≥ 70% | – | ≥ 70% | –
Cc1nc(C(C)C)sc1-c1ccnc(Nc2cccc(O)c2)n1 [Example 151, 3-{[4-(2-isopropyl-4-methyl-1,3-thiazol-5-yl)pyrimidin-2-yl]amino}phenol] | 2.42 | ≥ 70% | ≥ 70% | – | –
COc1cc(Nc2nccc(-c3sc(C)nc3C)n2)cc(OC)c1OC [Example 182, 4-(2,4-dimethyl-1,3-thiazol-5-yl)-N-(3,4,5-trimethoxyphenyl)pyrimidine-2-amine] | 2.1 | ≥ 70% | ≥ 70% | ≥ 70% | –
Cc1nc(C)c(-c2ccnc(Nc3ccccc3)n2)s1 [Example 190, 4-(2,4-dimethyl-1,3-thiazol-5-yl)-N-phenylpyrimidine-2-amine] | 2.4 | ≥ 70% | ≥ 70% | – | –
COc1ccc(Nc2nccc(-c3sc(N)nc3C)n2)cc1Cl [Example 203, 4-(2-amino-4-methyl-1,3-thiazol-5-yl)-N-(3-chloro-4-methoxyphenyl)pyrimidine-2-amine] | 1.63 | – | – | ≥ 70% | –
Cc1nc(N)sc1-c1ccnc(Nc2ccccc2)n1 [Example 210, 4-(2-amino-4-methyl-1,3-thiazol-5-yl)-N-phenylpyrimidine-2-amine] | 1.51 | – | – | ≥ 70% | –
COc1cc(Nc2nccc(-c3sc(C4CC4)nc3C)n2)cc(OC)c1OC [Example 222, 4-(2-cyclopropyl-4-methyl-1,3-thiazol-5-yl)-N-(3,4,5-trimethoxyphenyl)pyrimidine-2-amine] | 2.77 | – | ≥ 70% | – | –
CCc1nc(C)c(-c2ccnc(Nc3cc(OC)c(OC)c(OC)c3)n2)s1 [Example 235, 4-(2-ethyl-4-methyl-1,3-thiazol-5-yl)-N-(3,4,5-trimethoxyphenyl)pyrimidine-2-amine] | 2.61 | – | ≥ 70% | ≥ 70% | –
CCc1nc(C)c(-c2ccnc(Nc3ccc(F)cc3)n2)s1 [Example 239, 4-(2-ethyl-4-methyl-1,3-thiazol-5-yl)-N-(4-fluorophenyl)pyrimidine-2-amine] | 3.1 | – | – | ≥ 70% | –
CCc1nc(C)c(-c2ccnc(Nc3ccc(OC)nc3)n2)s1 [Example 240, 4-(2-ethyl-4-methyl-1,3-thiazol-5-yl)-N-(6-methoxypyridin-3-yl)pyrimidine-2-amine] | 2.33 | ≥ 70% | ≥ 70% | – | –
CCc1nc(C)c(-c2ccnc(Nc3ccccc3)n2)s1 [Example 243, 4-(2-ethyl-4-methyl-1,3-thiazol-5-yl)-N-phenylpyrimidine-2-amine] | 3.07 | – | ≥ 70% | ≥ 70% | –
COc1cc(Nc2nccc(-c3sc(C(C)C)nc3C)n2)cc(OC)c1OC [Example 244, 4-(2-isopropyl-4-methyl-1,3-thiazol-5-yl)-N-(3,4,5-trimethoxyphenyl)pyrimidine-2-amine] | 2.99 | ≥ 70% | ≥ 70% | – | –
COc1ccc(Nc2nccc(-c3sc(C(C)C)nc3C)n2)cn1 [Example 247, 4-(2-isopropyl-4-methyl-1,3-thiazol-5-yl)-N-(6-methoxypyridin-3-yl)pyrimidine-2-amine] | 2.76 | ≥ 70% | ≥ 70% | ≥ 70% | –
Cc1nc(C(C)C)sc1-c1ccnc(Nc2ccccc2)n1 [Example 251, 4-(2-isopropyl-4-methyl-1,3-thiazol-5-yl)-N-phenylpyrimidine-2-amine] | 3.55 | ≥ 70% | ≥ 70% | ≥ 70% | –
Cc1nc(C)c(-c2ccnc(Nc3ccc(O)cc3)n2)s1 [Example 321, 4-{[4-(2,4-dimethyl-1,3-thiazol-5-yl)pyrimidin-2-yl]amino}phenol] | 1.62 | – | – | ≥ 70% | –
Cc1nc(C2CC2)sc1-c1ccnc(Nc2ccc(O)cc2)n1 [Example 324, 4-{[4-(2-cyclopropyl-4-methyl-1,3-thiazol-5-yl)pyrimidin-2-yl]amino}phenol] | 2.01 | – | – | ≥ 70% | –
CCc1nc(C)c(-c2ccnc(Nc3ccc(O)cc3)n2)s1 [Example 327, 4-{[4-(2-ethyl-4-methyl-1,3-thiazol-5-yl)pyrimidin-2-yl]amino}phenol] | 1.88 | – | – | ≥ 70% | –
Cc1nc(C(C)C)sc1-c1ccnc(Nc2ccc(O)cc2)n1 [Example 329, 4-{[4-(2-isopropyl-4-methyl-1,3-thiazol-5-yl)pyrimidin-2-yl]amino}phenol] | 2.18 | – | – | ≥ 70% | –
CCOC(=O)c1cccc(Nc2nccc(-c3sc(C(C)C)nc3C)n2)c1 [Example 375, ethyl-3-{[4-(2-isopropyl-4-methyl-1,3-thiazol-5-yl)pyrimidin-2-yl]amino}benzoate] | 3.83 | – | ≥ 70% | – | –
CCc1nc(C)c(-c2ccnc(Nc3ccc(NC(C)=O)cc3)n2)s1 [Example 460, N-(4-{[4-(2-ethyl-4-methyl-1,3-thiazol-5-yl)pyrimidin-2-yl]amino}phenyl)acetamide] | – | – | – | ≥ 70% | 1.88
CC(=O)Nc1ccc(Nc2nccc(-c3sc(C(C)C)nc3C)n2)cc1 [Example 461, N-(4-{[4-(2-isopropyl-4-methyl-1,3-thiazol-5-yl)pyrimidin-2-yl]amino}phenyl)acetamide] | – | ≥ 70% | ≥ 70% | – | 2.15
Cc1nc(N)sc1-c1ccnc(Nc2ccc(CNC(=O)OC(C)(C)C)cc2)n1 [Example 628, tert-butyl-(4-{[4-(2-amino-4-methyl-1,3-thiazol-5-yl)pyrimidin-2-yl]amino}benzyl)carbamate] | – | – | – | ≥ 70% | 1.86
Cc1nc(C2CC2)sc1-c1ccnc(Nc2ccc(CNC(=O)OC(C)(C)C)cc2)n1 [Example 630, tert-butyl-(4-{[4-(2-cyclopropyl-4-methyl-1,3-thiazol-5-yl)pyrimidin-2-yl]amino}benzyl)carbamate] | – | – | – | ≥ 70% | 3.46
Cc1nc(C)c(-c2ccnc(Nc3ccc(F)cc3F)n2)s1 [Example 759, N-(2,4-difluorophenyl)-4-(2,4-dimethyl-1,3-thiazol-5-yl)pyrimidine-2-amine] | – | ≥ 70% | – | – | 2.8
